Test results published in EP1463487B1, “LIPOSOMAL DELIVERY OF VITAMIN E BASED COMPOUNDS” (RESEARCH DEVELOPMENT FOUNDATION, priority 2001, dated 2003).
“Also recorded” adds a separate entry of the source.

Legend:
[1] = system: cp-70 human ovarian cancer cells; assay: Apoptosis of cp-70 ovarian cancer cells in culture; assay type: cell-based; details: treated in culture with α-TEA
66 cl.4-GFP cells [2] = assay: Tumor growth of 66 cl.4-GFP mammary tumor cells implanted in Balb/c mice; details: for mean tumor volume reduced in comparison to aerosol control: liposomal α-TEA/aerosol daily
Protocol: 66 cl.4-GFP cells were harvested by trypsinization, centrifuged, resuspended in McCoy's media, containing no supplements at a density of 2 X 10^5/100µl. Mice were injected in the inguinal area at a point equal distance between the 4th and 5th nipples on the right side using a 23 gauge needle.
(§2) 50 mice were assigned (10 per group) to aerosol treatment, aerosol control, oral treatment, oral control, or to the no treatment group so that the average tumor volume for all groups were closely matched. […] Tumors were measured using calipers every other day, and volumes were calculated using the formula: volume (mm^3) = [width (mm)^2 X length (mm)] /2. Body weights were determined weekly.
Balb/c mice were injected with 200,000 66 cl.4 GFP cells subcutaneous in the mammary fat pad area between the 4th and 5th nipple on the right side of the body.
Mice are injected with 200,000 66cl.4 GFP murine mammary tumor cells as described on day 0. Treatments are initiated on day 9 when tumors reached 1-3 mm in size. […] Data represent the mean +/- Standard Error (SE), N = 10 mice for control and treatment groups.
Balb/c mice were injected s. c. with 2 X 10^5 66 cl.4-GFP cells in the inguinal area between the 4th and 5th nipple on the right side of the body. When tumors reached 2 x 2-4 x 4 mm (9 days after tumor injection), mice were placed into 5 groups ((Group 1: untreated control, Group 2: liposome/aerosol control, Group 3: liposomal α-TEA aerosol treatment, Group 4: peanut oil/gavage control, Group 5: α-TEA in peanut oil/gavage treatment) of 10 mice/group) such that the mean tumor volume of each group was closely matched. Daily treatments were initiated on day 9 after tumor injection.
Balb/c mice were injected with 200,000 66 cl.4 GFP cells subcutaneous in the mammary fat pad area between the 4th and 5th nipple on the right side of the body. […] Animals were treated with α-TEA in liposome, vitamin E succinate in liposome, or control liposome alone via aerosol, 7 days per week, for 21 days. Animals were given 75 mg compound via nebulization per day such that each animal received 36 µg compound per day.
The size of the tumors, 9 - 21 days after injection of 200,000 66 cl.4 GFP cells between the 4th and 5th nipple on the right side of each mouse, is determined. Treatments are initiated on day 9 after tumor inoculation. Each group consists of n=10 +/- SE. Gavage Treatment = Treatments of 5 mg of α-TEA in ethanol and peanut oil (0.1 ml volume) are administered daily starting on day 9 after tumor inoculation and continuing through day 21. Gavage Control = Mice received peanut oil and ethanol alone (0.ml volume)/daily, starting on day 9 after tumor inoculation and continuing through day 21. Data (tumor size) are depicted as the mean +/- standard error for days 9, 11, 13, 15, 17, 19, and 21.
Balb/c mice were injected with 200,000 66 cl.4 GFP cells subcutaneous in the mammary fat pad area between the 4th and 5th nipple on the right side of the body. […] Animals were treated with α-TEA in liposome, vitamin E succinate in liposome, or control liposome alone via oral gavage, 2 times per day, 7 days per week, for 21 days. Animals were given a total of 6 mg compound per day.

66 cl.4-GFP cells [3] = assay: Visible lung metastases of 66 cl.4-GFP tumors in Balb/c mice; assay type: in vivo; details: daily aerosol for 17 days; counted visually at sacrifice
Description: (§1) Metastastic lesions in the five lung lobes were counted visually at time of sacrifice. Fluorescent green micro-metastatic cancer cell colonies in the left lung lobe and lymph nodes were counted using a Nikon fluorescence microscope (TE-200) with a 20 x objective (200 x magnification) and Image-Pro Plus (version 4.1; Media Cybernetics, Silver Spring, MD) software associated with the microscope. Fluorescent lesions were separated into three size grouping: <5 µm , 5-10 µm and >10 µm.

66 cl.4-GFP cells [4] = assay: Colony-forming assay; assay type: cell-based, mouse; details: 10 days
Protocol: 66 cl.4-GFP cells were seeded at 600 cells per 35 X 1 0 mm tissue culture plate (Nunclon, Rochester, NY) and allowed to adhere over night at 37° C. […] Treatments were left on the cells for 10 days without change of media. After 10 days, media were removed and plates were washed with PBS three times. Cells were stained for 30 min with 1% methylene blue in PBS and colonies > 0.5 mm manually counted.

MDA-MB-435 GFP FL cells = assay: Tumor growth of MDA-MB-435 GFP FL breast cancer cells in nude mice; assay type: in vivo, Nu/Nu athymic nude mice; details: liposome gavage, 8 mg compound per day, 2 times per day; day 27
Protocol: Animals were given a total of 8 mg compound per day. […] Alpha-TEA liposome gavage reduced tumor growth by 68, 75, 78, 79 and 79% on days 27, 29, 31, 33, and 35, respectively (Fig. 15).
Animals were gavaged 3ppm methylselenocysteine (MSC) in water, α-TEA in liposome via aerosol, or gavaged 10 mg/kg b.w. trans-resveratrol (t-RES) in first 1:1, EtOH: physiological saline, and starting at day 24, 6.5% EtOH and 93.5% Neobee oil. A combination group was treated with each of the above three compounds, and a control group was treated with aerosolized liposome, 100 µl water, and 50 µl of the t-Res solvent. Animals were treated seven days a week, for 35+ days.

66 cl.4-GFP cells [5] = assay: Fluorescent lymph node micrometastases of 66 cl.4-GFP tumors in Balb/c mice; assay type: in vivo
Description: as §1
At sacrifice, the left lung lobe of each mouse of flash frozen and saves for detection of GFP expressing micrometatstic lesions via fluorescent microscopy.

66 cl.4-GFP tumors = assay: TUNEL assay for apoptosis in tumor sections in vivo; design: species or system Balb/c mice
Description: Deparaffinized sections (5 µm) of tumor tissue were used to assess apoptosis using reagents supplied in the ApopTag In Situ Apoptosis Detection kit (Intergen, Purchase, NY) according to the manufacturer's instructions. Nuclei that stained brown were scored as positive for apoptosis and those that stained blue were scored as negative. At least sixteen 400X microscopic fields were scored per tumor. Data are presented as the mean ± S. E number of apoptotic cells counted in three separate tumors from each group. Pictures of tumor tissue were taken at 1000X magnification.

[6] = Body weight and long term safety of α-TEA treated mice; assay type: in vivo, Balb/c mice
Protocol: as §2
Balb/c mice, 10/group (4 groups, 40 mice total) are inoculated with 200,000 66 cl.4 GFP cells as described on day 0. Nine days after tumor inoculation, treatments groups are initiated: Aerosol Treatment (TX) = aerosol delivery of α-TEA liposome (5 mg/mouse)/daily through day 23. Aerosol Control = Aerosol delivery of liposome composition only daily through day 23. Gavage treatment = gavage administration of α-TEA at 5 mg/mouse in ethanol/peanut oil daily through day 23. Gavage control = gavage administration of ethanol/peanut oil only through day 23. Mice were weighed at the initiation of treatment (day 9) and thereafter on days 13, 16, 20, and 23 (Fig. 6). Data are presented as the mean +/- standard deviation.

[7] = system: A2780 cisplatin-sensitive cell line; assay: Apoptosis of A2780 ovarian cancer cells in culture; assay type: cell-based, human; details: treated in culture with α-TEA
[8] = system: proliferation biomarker KI-67; assay: KI-67 immunohistochemistry of tumor sections (cell proliferation); assay type: in vivo, Balb/c mice; details: transplantable syngeneic mouse mammary cancer model, in comparison to controls
[9] = Serum and tissue levels of α-TEA after liposomal aerosol treatment (HPLC); assay type: in vivo, balb/c mice; details: aerosol 5 mg/mouse over 30 minutes
Protocol: Tumors were removed during necropsy and half of each tumor was quick frozen in liquid nitrogen then stored at -70°C until HPLC analyses were performed. Tumors were processed for HPLC analyses by homogenization and hexane extraction of lipids. Briefly, weighed tumors were placed in 5 ml disposable conical-bottom tubes (Sarstedt, Newton, NC) along with 5-7 Kimble solid glass beads (4mm), 1 ml 1% SDS in water, 1-2 ml 100% ethanol and 1 ml hexane. Samples were then mixed using a Crescent Wig-L-Bug (model 3110B Densply International, Elgin, IL) twice for 1 min each. Samples were then centrifuged for 5 min at 1,000 rpm, and the organic layer collected, the aqueous layer was mixed with hexane again, vortexed, centrifuged, and processed twice more before the organic layer was dried down under nitrogen. Samples were run immediately. Reverse phase HPLC analyses with fluorometric detection of the tocopherol ether analog were conducted as described by Tirmenstein, M.A., et al. (23).
Eight mice are treated via pulmonary aerosol delivery with 40mg of α-TEA (5 mg/mouse) in 6 ml liposomes. The mice inhaled the aerosol over a period of 30 minutes until delivery was complete. Mice are sacrificed 0, 2, 6, or 24 hours after the treatment ended. Serum and tissue levels of α-TEA are determined by HPLC analyses (Fig. 7).

[10] = Aerosol, in nebulizer per mouse: α-TEA 5 mg/d, 9NC 2 µg/d, combination 5 mg+2µg/d

Compound: Cc1c(C)c2c(c(C)c1OCC(=O)O)CC[C@@](C)(CCC[C@H](C)CCC[C@H](C)CCCC(C)C)O2 [α-TEA, 2,5,7,8-tetramethyl-(2R-(4R,8R,12-trimethyltridecyl)chroman-6-yloxy) acetic acid]
- apoptosis [1]: undergo apoptosis
- tumor size at the inoculation site versus gavage control (66 cl.4-GFP cells [2]; 5 mg/day/mouse α-TEA in ethanol and peanut oil by gavage): no significant differences in tumor weights; also recorded: did not differ
- Inhibition (%) Tumor Growth (66 cl.4-GFP cells [2]; [10]): 65%
- Inhibition (%) Tumor Growth (66 cl.4-GFP cells [2]; EtOH/P Oil, Gavage, 5 mg/d): 0%
- Inhibition (%) Tumor Growth (66 cl.4-GFP cells [2]; Liposomal, Aerosol, 5 mg/d): 70%
- Inhibition (%) Tumor Growth (66 cl.4-GFP cells [2]; Liposomal, Gavage, 3 mg/2Xd): 70%
- size of tumors less than aerosol only control group (66 cl.4-GFP cells [2]; aerosol α-TEA liposomes 5 mg/mouse daily, sacrifice day 25, 16 days after treatment initiation): 61%
- mean tumor volume reduced in comparison to aerosol control (66 cl.4-GFP cells [2]; day 9 of treatment): 23%
- mean tumor volume reduced in comparison to aerosol control (66 cl.4-GFP cells [2]; day 11 of treatment): 41%
- mean tumor volume reduced in comparison to aerosol control (66 cl.4-GFP cells [2]; day 13 of treatment): 50%
- mean tumor volume reduced in comparison to aerosol control (66 cl.4-GFP cells [2]; day 15 of treatment): 67%
- mean tumor volume reduced in comparison to aerosol control (66 cl.4-GFP cells [2]; day 17 of treatment): 61%
- reduced tumor growth (66 cl.4-GFP cells [2]; liposome aerosol, 36 µg compound per day, 21 days, day 15): 64%
- reduced tumor growth (66 cl.4-GFP cells [2]; liposome aerosol, 36 µg compound per day, 21 days, day 17): 76%
- reduced tumor growth (66 cl.4-GFP cells [2]; liposome aerosol, 36 µg compound per day, 21 days, day 19): 69%
- reduced tumor growth (66 cl.4-GFP cells [2]; liposome aerosol, 36 µg compound per day, 21 days, day 21): 67%
- reduced tumor growth (66 cl.4-GFP cells [2]; liposome gavage, 6 mg compound per day, 2 times per day, day 15): 85%
- reduced tumor growth (66 cl.4-GFP cells [2]; liposome gavage, 6 mg compound per day, 2 times per day, day 17): 85%
- reduced tumor growth (66 cl.4-GFP cells [2]; liposome gavage, 6 mg compound per day, 2 times per day, day 19): 80%
- reduced tumor growth (66 cl.4-GFP cells [2]; liposome gavage, 6 mg compound per day, 2 times per day, day 21): 70%
- No. Visible Lung Tumor Foci/Animal (66 cl.4-GFP cells [3]): No visible tumors were seen
- colonies (average ± S. D.) (66 cl.4-GFP cells [4]; 1.25 µg/ml): 98 ± 20 colonies
- colonies (average ± S. D.) (66 cl.4-GFP cells [4]; 2.5 µg/ml): 21 ± 6 colonies
- colonies (66 cl.4-GFP cells [4]; 5 µg/ml): No colonies formed
- colonies (66 cl.4-GFP cells [4]; 10 µg/ml): No colonies formed
- inhibition at 1.25 µg/mL (66 cl.4-GFP cells [4]; Mus musculus, 240 h, 1.25 µg/ml, compared to EtOH control, read-out: decreased colony formation): 30%
- inhibition at 2.5 µg/mL (66 cl.4-GFP cells [4]; Mus musculus, 240 h, 2.5 µg/ml, compared to EtOH control, read-out: decreased colony formation): 85%
- inhibition at 5 µg/mL (66 cl.4-GFP cells [4]; Mus musculus, 240 h, 5 µg/ml, compared to EtOH control, read-out: decreased colony formation): 100%
- reduced tumor growth (MDA-MB-435 GFP FL cells): 68%
- Inhibition (%) Metastases Lymphnode (66 cl.4-GFP cells [5]; [10]): 94%
- Inhibition (%) Metastases Lymphnode (66 cl.4-GFP cells [5]; Liposomal, Aerosol, 5 mg/d): 94%
- Inhibition (%) Metastases Lymphnode (66 cl.4-GFP cells [5]; Liposomal, Gavage, 3 mg/2Xd): 56%
- average micrometastatic lesions in lymph nodes (66 cl.4-GFP cells [5]; liposome via gavage, 6 mg compound per day, 21 days): 3.1 ±0.8
- apoptotic cells/field (mean ± S. E.) (66 cl.4-GFP tumors; liposomal α-TEA/aerosol treatment, three tumors): 2.04±0.23 apoptotic cells/field
- mean apoptotic values (TUNEL) increased (66 cl.4-GFP tumors; transplantable syngeneic mouse mammary cancer model, in comparison to controls): 30%
- long term adverse effects ([6]; non-tumor bearing mice treated by aerosol or gavage for 17 days, kept eleven months): did not show any adverse effects
- body weight ([6]; tumor bearing mice, α-TEA liposome aerosol or gavage in ethanol/peanut oil, 5 mg/mouse daily, versus controls): no significant weight differences; also recorded: No differences in mean body weights
- apoptosis [7]: undergo apoptosis
- mean values of the proliferation biomarker KI-67 reduced [8]: 56%
- serum and tissue levels of α-TEA ([9]; 0 hours after treatment ended): found only in the stomach tissue
- serum and tissue levels of α-TEA ([9]; 2 hours after treatment ended): present in the serum and stomach
- serum and tissue levels of α-TEA ([9]; 6 hours after treatment ended): present in the liver and stomach
- serum and tissue levels of α-TEA ([9]; 24 hours after treatment ended): present in the liver and stomach
